Results as given in publication PMC4226669, “Anti-cancer potency of tasquinimod is enhanced via albumin-binding facilitating increased uptake in the tumor microenvironment” (Oncotarget, 2014).
Where two headings read alike, the source gives them in different places.

Assays:
[1] = cited from earlier work
[2] = Protein binding fraction (PBF) in human plasma; type: in vitro ADME; details: 1-50 μM radiolabeled tasquinimod
Description: An explanation for this highly restricted cellular uptake in the blood is provided by the fact that protein binding fraction (PBF) for tasquinimod in nude mouse plasma is 98 ± 1%. This is not a nude mouse specific effect since incubation of 1-50 μM radiolabeled tasquinimod with human plasma or bovine fetal serum (FBS) results in a PBF of ~ 98%.
Mice were orally gavaged with ^14C-labeled tasquinimod at a dose of 5mg/kg and 1 hour later blood collected and plasma isolated and the PBF determined as described previously using Centrifree® YM-30 centrifuge filter unit with a molecular weight cutoff of 30K (i.e., Millipore, Billerica,MO).

[3] = Tissue distribution and metabolites in nude mice bearing CWR-22Rv1 cancers; type: in vivo, mouse; details: for concentration at 4 h: male, nude, mouse
Description: To determine the concentration of metabolites, nude mice bearing CWR-22Rv1 prostate cancers were orally administered with 5 mg/kg of ^14C- radiolabeled tasquinimod and 4 and 24 hours later, blood plasma and liver, kidney, and cancer tissue harvested and analyzed for determination of metabolites. […] The predominant metabolite is the O-demethylated quinoline compound, Figure 2A&B, but the concentration of the hydroxylated aromatic quinoline and the N-demethylated quinoline compounds, along with the O-demethylated quinoline compound are also higher in the liver than the blood at the time point studied, Figure 2B. Also in the kidney 40% of the drug is present as metabolites, with the concentration of the hydroxylated aromatic quinoline and the O-demethylated quinoline compounds being higher than in the blood, Figure 2B. In contrast, within the cancer > 80% of the total concentration of drug is present as parent tasquinimod, Figure 2B. Only the O-demethylated quinoline compound is present at a higher concentration in the cancer than blood, Figure 2B. The plasma concentration of total metabolites is < 10% at 4 hours, Figure 2B, and 24 hours post oral dosing with 5 mg/kg, Figure 2A.
Male nude mice bearing 200-300mm^3 CWR-22Rv1 cancers were given ^14C-labeled tasquinimod at a dose of 5 mg/kg via oral gavage. At times ranging from 30 min to 24 hour, groups of 4-6 mice were anaesthetized with ketamine and 1 ml of heparinized blood collected by cardiac puncture, followed by subsequent cardiac perfusion of saline to remove blood associated drug. An aliquot of liver, kidney, and cancer was removed, weighed and then homogenized. The radioactivity in 10 μL aliquots of tissue homogenates and blood plasma was determined using a liquid scintillation counter and used to calculate the total amount of tasquinimod plus its metabolites per gram of tissue or per ml of blood. The remaining sample volume was deproteinated with acetonitrile and the radioactivity of an aliquot of the supernatant determined and the remaining supernatant lyophilized, resuspended initially with 0.1mL dimethyl sulfoxide and diluted by the addition of 0.9mL deionized water prior to injection into the HPLC. The HPLC system consisted of Waters pumps using a Waters gradient controller to deliver mobile phase at a flow rate of 1mL per minute using a Supelcosil ABZ+ C18 column that is 150mm long by 4.6mm diameter and has 5μm particle size. The metabolites were separated using a linear gradient in which the starting mobile phase was 35% acetonitrile: 65% water: 0.1% Trifluoroacetic acid (TFA) increasing to 50% acetonitrile: 50% water: 0.1%TFA over 25 minutes, and then increased rapidly to 98% acetonitrile: 2% water: 0.1%TFA and held until 33 minutes before it is returned to the initial conditions for the next run. Fractions were collected and the radioactivity determined by scintillation counting. As controls, the individual elution time of non-radiolabeled standard solutions of the various tasquinimod metabolites was determined using UV absorption at 215nm. The results were expressed as concentration based upon tissue volume, assuming 1gram wet weight equals 1ml, or normalized to tissue vascular volume.

COc1cccc2c1c(O)c(C(=O)N(C)c1ccc(C(F)(F)F)cc1)c(=O)n2C [Tasquinimod]
blood (plasma) level maintained ([1]; chronic daily oral dosing, 1 mg (0.5-1 mg/day), clinical trials): ~ 0.5 μM
plasma half-life ([1]; clinical trials): 40 ± 16 h
plasma levels at which systemic anti-cancer potency occurs ([1]; clinical trials): 500 to 1000 nM
bioavailability and oral absorption ([1]; daily dose as liquid or gelatin capsule): excellent
fraction unbound [2]: ~0.02
prostate cancer tissue concentration relative to liver or kidney, normalized to percent vascular volume ([3]; 5 mg/kg oral): 3-5 fold
time to maximum total drug concentration in liver, kidney and cancer ([3]; 5 mg/kg oral, CWR-22Rv1 tumor bearing mice): ≤ 5 h
total drug within the cancer present as parent tasquinimod ([3]; CWR-22Rv1 cancer, 4 hours post 5 mg/kg oral): > 80%
percentage of total drug in CWR-22Rv1 cancer ([3]; CWR-22Rv1 cancer, 4 hours post oral 5mg/kg tasquinimod): 83+/-6%
percentage of total drug in kidney ([3]; kidney, 4 hours post oral 5mg/kg tasquinimod): 60+/-7%
percentage of total drug in liver ([3]; liver, 4 hours post oral 5mg/kg tasquinimod): 29+/-5%
concentration at 4 h ([3]; CWR-22Rv1 cancer tissue, CWR-22Rv1 cancer, 4 hours post oral 5mg/kg tasquinimod, 1gm tissue = 1ml, read-out: concentration in CWR-22Rv1 cancer): 2.24 µM
concentration at 4 h ([3]; kidney, 4 hours post oral 5mg/kg tasquinimod, 1gm tissue = 1ml, read-out: concentration in kidney): 2.3 µM
concentration at 4 h ([3]; liver, 4 hours post oral 5mg/kg tasquinimod, 1gm tissue = 1ml, read-out: concentration in liver): 3.77 µM
concentration at 4 h ([3]; plasma, 4 hours post oral 5mg/kg tasquinimod, read-out: concentration in plasma): 5.58 µM
percentage of total drug in plasma ([3]; plasma, 4 hours post oral 5mg/kg tasquinimod): 93+/-6%
